The values that follow are results of earlier work, collected in patent publication US9907807B2, “Topical pharmaceutical compositions” (Almirall, S.A., priority 2010, dated 2018).

For `C[C@@H]1C[C@H]2[C@@H]3CCC4=CC(=O)C=C[C@]4(C)[C@@]3(Cl)[C@@H](O)C[C@]2(C)[C@@]1(OC(=O)c1ccco1)C(=O)CCl` [Mometasone furoate, 9α,21-dichloro-11β,17-dihydroxy-16α-methylpregna-1,4-diene-3,20-dione 17-(2-furoate)], the “solubility in ethyl alcohol” value (ethyl alcohol) is reported as “moderately soluble”. In addition, the solubility in octanol result (octanol) is on record as “slightly soluble”. Also, the solubility in water entry (water) is reported as “insoluble”.
